Consider 2 compounds from ChEMBL document CHEMBL1139487, “Discovery of corticotropin releasing factor 2 receptor selective sauvagine analogues for treatment of skeletal muscle atrophy” (J Med Chem, 2005).

Molecules are shown by their SMILES.

Assay [1] addresses T1, Corticotropin-releasing factor receptor 1 (Mus musculus, UniProt P35347).
T1 sequence (P35347 whole entry): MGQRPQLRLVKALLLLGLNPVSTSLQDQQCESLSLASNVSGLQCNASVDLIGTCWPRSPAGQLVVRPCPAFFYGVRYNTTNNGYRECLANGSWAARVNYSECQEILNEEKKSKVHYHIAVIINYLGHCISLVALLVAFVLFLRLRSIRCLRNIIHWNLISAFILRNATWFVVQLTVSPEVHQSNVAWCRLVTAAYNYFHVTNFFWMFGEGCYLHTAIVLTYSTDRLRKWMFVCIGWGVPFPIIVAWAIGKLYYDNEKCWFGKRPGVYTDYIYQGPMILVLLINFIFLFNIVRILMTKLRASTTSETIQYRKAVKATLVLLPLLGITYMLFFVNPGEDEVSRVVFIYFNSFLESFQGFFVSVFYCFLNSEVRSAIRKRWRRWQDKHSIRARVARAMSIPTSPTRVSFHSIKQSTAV
As to the kind of experiment: In vitro effective concentration for mouse corticotropin releasing factor 1 receptor.

Assay [2] has as its target Corticotropin-releasing factor receptor 2 (Mus musculus, UniProt Q60748). Nature of the assay: In vitro effective concentration for mouse corticotropin releasing factor 2 receptor.
In assay [3] the target is T2, Corticotropin-releasing factor receptor 1 (Mus musculus) (UniProt P35347).
T2 sequence (whole entry): T1 sequence (P35347 whole entry)
As to the kind of experiment: In vitro agonistic activity against mouse corticotropin releasing factor 1 receptor. The class given is functional.

For assay [4], the target named is Corticotropin-releasing factor receptor 2 (Mus musculus) (UniProt Q60748). Nature of the assay: In vitro agonistic activity against mouse corticotropin releasing factor 2 receptor. The class given is functional.
The species named for assay [5] is Mus musculus. As to the kind of experiment: Selectivity ratio of EC50s for mouse corticotropin releasing factor receptors 1 and 2.

Chain of Corticotropin-releasing factor receptor 2 (Q60748 whole entry): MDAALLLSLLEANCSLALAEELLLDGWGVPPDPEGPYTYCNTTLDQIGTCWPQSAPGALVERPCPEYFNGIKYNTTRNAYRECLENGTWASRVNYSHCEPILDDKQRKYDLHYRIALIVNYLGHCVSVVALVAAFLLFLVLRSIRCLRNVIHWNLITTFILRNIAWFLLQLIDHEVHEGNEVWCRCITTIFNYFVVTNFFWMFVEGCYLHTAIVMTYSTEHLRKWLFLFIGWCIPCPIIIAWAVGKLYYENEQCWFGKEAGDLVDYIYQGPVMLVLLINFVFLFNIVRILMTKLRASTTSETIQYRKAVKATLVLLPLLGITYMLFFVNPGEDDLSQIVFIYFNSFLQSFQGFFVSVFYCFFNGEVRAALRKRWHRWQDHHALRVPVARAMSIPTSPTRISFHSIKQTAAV
Chain of Corticotropin-releasing factor receptor 2 (Mus musculus) (Q60748 whole entry): as above

Regarding `CC[C@H](C)[C@H](NC(=O)[C@@H](NC(=O)[C@H](CC(=O)O)NC(=O)[C@H](CC(C)C)NC(=O)[C@H](CC(C)C)NC(=O)[C@H](CC(C)C)NC(=O)[C@H](CCCN=C(N)N)NC(=O)[C@H](CC(N)=O)NC(=O)[C@H](CC(N)=O)NC(=O)[C@H](C)NC(=O)[C@H](C)NC(=O)[C@H](CCC(N)=O)NC(=O)[C@H](CCC(N)=O)NC(=O)[C@H](CCCCN)NC(=O)[C@H](CCC(=O)O)NC(=O)[C@H](CCCCN)NC(=O)[C@H](CCC(=O)O)NC(=O)[C@H](CCC(N)=O)NC(=O)[C@H](CCCCN)NC(=O)[C@H](CCC(=O)O)NC(=O)[C@@H](NC(=O)[C@H](CCC(=O)O)NC(=O)[C@@H](NC(=O)[C@H](CCSC)NC(=O)[C@H](CCCCN)NC(=O)[C@H](CCCN=C(N)N)NC(=O)[C@H](CC(C)C)NC(=O)[C@H](CC(C)C)NC(=O)[C@H](Cc1ccccc1)NC(=O)[C@@H](NC(=O)[C@@H]1CCCN1C(=O)[C@H](CC(C)C)NC(=O)[C@H](CC(=O)O)NC(=O)[C@@H](NC(=O)[C@H](CO)NC(=O)[C@@H](NC(=O)[C@@H]1CCCN1C(=O)[C@@H]1CCCN1C(=O)CNC(=O)[C@@H]1CCC(=O)N1)[C@@H](C)CC)[C@@H](C)CC)[C@@H](C)O)[C@@H](C)CC)[C@@H](C)CC)[C@@H](C)O)C(=O)O`, the EC50 in assay [1] stood at 943 nM; in assay [2], 19.2 nM. Further, the Emax was 64% in assay [3] and 87% in assay [4]. Further, in assay [5], the Selectivity was found to be 49.

As to `CC[C@H](C)[C@H](NC(=O)[C@@H](NC(=O)[C@H](CC(=O)O)NC(=O)[C@H](CC(C)C)NC(=O)[C@H](CC(C)C)NC(=O)[C@H](CC(C)C)NC(=O)[C@H](CCCN=C(N)N)NC(=O)[C@H](CC(N)=O)NC(=O)[C@H](CC(N)=O)NC(=O)[C@H](C)NC(=O)[C@H](C)NC(=O)[C@H](CCC(N)=O)NC(=O)[C@H](CCC(N)=O)NC(=O)[C@H](CCCCN)NC(=O)[C@H](CCC(=O)O)NC(=O)[C@H](CCCCN)NC(=O)[C@H](CCC(=O)O)NC(=O)[C@H](CCC(N)=O)NC(=O)[C@H](CCCCN)NC(=O)[C@H](CCC(=O)O)NC(=O)[C@@H](NC(=O)[C@H](CCC(=O)O)NC(=O)[C@@H](NC(=O)[C@H](CCSC)NC(=O)[C@H](CCCCN)NC(=O)[C@H](CCCN=C(N)N)NC(=O)[C@H](CC(C)C)NC(=O)[C@H](CC(C)C)NC(=O)[C@H](Cc1c[nH]c2ccccc12)NC(=O)[C@H](CC(C)C)NC(=O)[C@@H]1CCCN1C(=O)[C@H](CC(C)C)NC(=O)[C@H](CC(=O)O)NC(=O)[C@@H](NC(=O)[C@H](CO)NC(=O)[C@@H](NC(=O)[C@@H]1CCCN1C(=O)[C@@H]1CCCN1C(=O)CNC(=O)[C@@H]1CCC(=O)N1)[C@@H](C)CC)[C@@H](C)CC)[C@@H](C)CC)[C@@H](C)CC)[C@@H](C)O)C(=O)O`, the EC50 amounted to 98.4 nM in assay [1] and 4.8 nM in assay [2]. Besides, the Emax in assay [3] was 100%; in assay [4], 96%. Besides, the Selectivity in assay [5] came to 20.

The EC50 is the concentration needed to bring the measured effect to its halfway point. A high value points to a less potent agent. Broadly, the Emax is the greatest response seen or fitted, relative to the assay's reference.
